What was measured:
soybean varieties = experiment: Greenhouse pot test: soybean varieties sown in soil treated with HPPD inhibitor, ED20 and factor versus reference variety; format: in vivo, Glycine max
Description: Test Method for the Selection of Suitable Soybean Varieties: Categorisation of the Soybean Varieties According to Their Sensitivity to HPPD Herbicide Residues and Comparison with Sensitive and Non-Sensitive Soybean Varieties:
• 1. A non-sterilised soil is treated with the HPPD inhibitor being tested. The HPPD inhibitor being tested is applied in concentrations of 0, 20, 40 and 80 ppb and incorporated homogeneously into the soil. The soil so treated is then introduced into pots (2⅝ inch×2⅝ inch×3½ inch) and lightly firmed. • 2. Sowing: The soybean varieties being tested are sown in the pots treated as described above as follows: 3 seed grains are used per pot, the seeds being pressed lightly into the soil (under the surface of the soil) and covered over with soil. In each test, varieties having known sensitivity are also tested as reference. These are the soybean varieties NK S40-R9 and Pioneer P94B01. Shortly after germination, the plants are thinned out to two plants per pot. The plants receive an optimum supply of water and nutrients and are kept in a greenhouse at 20-24° C., with 16 hours exposure to light per day. • 3. 3-4 Weeks after sowing, the condition of the plants is evaluated visually. Symptoms of damage to the plants, such as chlorosis, bleaching and growth inhibition (‘stunting’), are assessed and compared with an untreated soya plant of the same variety. • 4. Calculation: The repetitions are combined and a linear regression analysis is carried out with non-transformed data. ED20 values (=effective dose at which damage is 20% in comparison with the untreated control) are calculated from the regression curve for each variety. The soybeans are grouped according to whether they are “sensitive” or “tolerant” by comparing the ED20 values of the test varieties with those of the standard varieties, that is to say by determining a factor with respect to the reference variety.

[1] = test system: soya varieties S40R-9 and S24-K4; experiment: Field carry-over test: phytotoxicity to soya grown as subsequent crop to maize treated with HPPD herbicide; format: in vivo, Glycine max
Source text: Biological Test Method for the Selection of Suitable Sensitive Reference Soybean Varieties in the Field:
• a) Compound No. 2.13 according to Table 2 below was applied pre- or post-emergence to maize in three repetitions in a field in the vicinity of Ames, Iowa, USA, under practical conditions at a suitable time (pre-emergence April-May; post-emergence May-June) in a field trial using concentrations of 100, 200 and 400 g a.i./ha. Application of fertilizer, pest control and other cultivation measures were carried out in accordance with the standards customary in agriculture. Because not all weeds were controlled by the test herbicides, the test plots were kept weed-free over the entire vegetation period by the application of non-soil-active herbicides. • b) The plots were harvested and labeled in the autumn. At the customary time in […] (April/May) of the following year, the soybeans to be tested were sown in the labeled plots from the previous year and the condition of the plants on reaching the different physiological growth stages was evaluated (see Table 1). • c) The evaluation was carried out in % general phytotoxicity, which records any effects such as growth inhibition, bleaching, chlorosis, scorching or thinning. 0-4% phytotoxicity is acceptable, >4% is not acceptable under practical field conditions.
Tables A and B: Phytotoxicity of the soya varieties S40R-9 and S24-K4 as a subsequent crop to maize in which weed control has been carried out using the herbicide of formula 2.13. The herbicide was applied in an amount of 400 g/ha; in Table B an oil adjuvant (Agridex) was additionally used in an amount of 1.25% by volume.

In the case of `CS(=O)(=O)c1ccc(C(=O)C2C(=O)CCCC2=O)c([N+](=O)[O-])c1` [2.04, reference compound], the “Factor with respect to reference variety NK S40-R9, based on ED20 values” (shortened to “Factor”) (soybean varieties; Table D, soya variety S21-H7 STS) is reported as 3.45, the “Factor” value (soybean varieties; Table D, soya variety S34-A9 STS) is reported as 4.56 and the “Factor” value (soybean varieties; Table D, soya variety S40-R9 (reference variety)) is reported as 1.0.
In the case of `COCCOCc1nc(C(F)(F)F)ccc1C(=O)C1=C(O)C2CCC(C2)C1=O` (stereo not drawn) [Compound No. 2.13], the “% Phytotoxicity (mean value)” value ([1]; Table A, soya variety NK S40-R9, 400 g/ha on maize, 29 days after sowing, 404 days after herbicide application, BBCH12/BBCH13) is reported as 6.67%, the “% Phytotoxicity (mean value)” value ([1]; Table A, soya variety NK S40-R9, 400 g/ha on maize, 42 days after sowing, 417 days after herbicide application, BBCH14/BBCH14) is reported as 13% and the “% Phytotoxicity (mean value)” value ([1]; Table A, soya variety NK S40-R9, 400 g/ha on maize, 56 days after sowing, 431 days after herbicide application, BBCH16/BBCH17) is reported as 14.33%. The “% Phytotoxicity (mean value)” value ([1]; Table A, soya variety NK-S24-K4, 400 g/ha on maize, 29 days after sowing, 404 days after herbicide application, BBCH12/BBCH13) was 0%, the “% Phytotoxicity (mean value)” value ([1]; Table A, soya variety NK-S24-K4, 400 g/ha on maize, 42 days after sowing, 417 days after herbicide application, BBCH14/BBCH14) was 0% and the “% Phytotoxicity (mean value)” value ([1]; Table A, soya variety NK-S24-K4, 400 g/ha on maize, 56 days after sowing, 431 days after herbicide application, BBCH16/BBCH17) was 0%. The “% Phytotoxicity (mean value)” value ([1]; Table B, soya variety NK S40-R9, 400 g/ha on maize plus oil adjuvant (Agridex) 1.25% by volume, 29 days after sowing, 404 days after herbicide application, BBCH12/BBCH13) was 36.67%, the “% Phytotoxicity (mean value)” value ([1]; Table B, soya variety NK S40-R9, 400 g/ha on maize plus oil adjuvant (Agridex) 1.25% by volume, 42 days after sowing, 417 days after herbicide application, BBCH14/BBCH14) was 49.33% and the “% Phytotoxicity (mean value)” value ([1]; Table B, soya variety NK S40-R9, 400 g/ha on maize plus oil adjuvant (Agridex) 1.25% by volume, 56 days after sowing, 431 days after herbicide application, BBCH16/BBCH17) was 56.67%. The “% Phytotoxicity (mean value)” value ([1]; Table B, soya variety NK-S24-K4, 400 g/ha on maize plus oil adjuvant (Agridex) 1.25% by volume, 29 days after sowing, 404 days after herbicide application, BBCH12/BBCH13) was 5.67%, the “% Phytotoxicity (mean value)” value ([1]; Table B, soya variety NK-S24-K4, 400 g/ha on maize plus oil adjuvant (Agridex) 1.25% by volume, 42 days after sowing, 417 days after herbicide application, BBCH14/BBCH14) was 3.33% and the “% Phytotoxicity (mean value)” value ([1]; Table B, soya variety NK-S24-K4, 400 g/ha on maize plus oil adjuvant (Agridex) 1.25% by volume, 56 days after sowing, 431 days after herbicide application, BBCH16/BBCH17) was 1.67%. For the same compound, the “Factor” value (soybean varieties; soya variety AGI 7370 RR) was 1.0, the “Factor” value (soybean varieties; soya variety Agripro 2502 RR) was 5.3 and the “Factor” value (soybean varieties; soya variety Agripro 2547 RR/N) was 4.7. The “Factor” value (soybean varieties; soya variety Agway APK 190) was 12.2, the “Factor” value (soybean varieties; soya variety Agway APK256 RR) was 5.6 and the “Factor” value (soybean varieties; soya variety Asgrow 1602) was 5.4. The “Factor” value (soybean varieties; soya variety Asgrow 2105) was 6.5, the “Factor” value (soybean varieties; soya variety Asgrow 2705) was 5.0 and the “Factor” value (soybean varieties; soya variety Asgrow AG1401 RR) was 4.5. The “Factor” value (soybean varieties; soya variety Asgrow AG2302) was 4.7, the “Factor” value (soybean varieties; soya variety Asgrow AG3902) was 4.7 and the “Factor” value (soybean varieties; soya variety Asgrow AG4403) was 8.5. For the same compound, the “Factor” value (soybean varieties; soya variety Beck's 336NRR) was 4.5, the “Factor” value (soybean varieties; soya variety Beck's 366NRR) was 4.9 and the “Factor” value (soybean varieties; soya variety D King 4868RR) was 4.4. The “Factor” value (soybean varieties; soya variety Dekalb DK32-51) was 5.3, the “Factor” value (soybean varieties; soya variety Dekalb DKB23-51) was 5.8 and the “Factor” value (soybean varieties; soya variety Dekalb DKB36-51) was 4.2. For the same compound, the “Factor” value (soybean varieties; soya variety Garst 2677 RR) was 4.1, the “Factor” value (soybean varieties; soya variety Gld H H3505RR) was 5.8 and the “Factor” value (soybean varieties; soya variety Kruger 279 RR) was 3.4. The “Factor” value (soybean varieties; soya variety Kruger 323 RR) was 4.3, the “Factor” value (soybean varieties; soya variety MFA RT 3660N) was 4.3 and the “Factor” value (soybean varieties; soya variety Mustang M-222RR) was 0.8. The “Factor” value (soybean varieties; soya variety NK S24-K4) was 3.6, the “Factor” value (soybean varieties; soya variety NK S35-A6) was 5.3 and the “Factor” value (soybean varieties; soya variety NK S40-R9 (reference variety)) was 1.0. For the same compound, the “Factor” value (soybean varieties; soya variety NK S46-W8) was 0.5, the “Factor” value (soybean varieties; soya variety Pioneer 90B51) was 1.1 and the “Factor” value (soybean varieties; soya variety Pioneer 91B33) was 4.9. The “Factor” value (soybean varieties; soya variety Pioneer 91B91) was 3.0, the “Factor” value (soybean varieties; soya variety Pioneer 93B67) was 1.1 and the “Factor” value (soybean varieties; soya variety Pioneer 94B01) was 0.8. For the same compound, the “Factor” value (soybean varieties; soya variety Pioneer 94B54) was 1.6, the “Factor” value (soybean varieties; soya variety Pioneer 9492) was 1.0 and the “Factor” value (soybean varieties; soya variety Pioneer P92B38) was 4.3. The “Factor” value (soybean varieties; soya variety S21-H7 STS) was 5.03, the “Factor” value (soybean varieties; soya variety S34-A9 STS) was 8.0 and the “Factor” value (soybean varieties; soya variety S. Grow SG948RR) was 1.2.

Reference: US8216975B2, “Method of labelling soya varieties” (priority 2004, dated 2012)
